Measured values from patent US10781431B2, “Cardiotonic steroid antagonists and related methods” (MARSHALL UNIVERSITY RESEARCH CORPORTION, priority 2014, dated 2020).
No end group written: not given here.

Assays:
[1] = reconstituted in vitro system; previously demonstrated (PCT/US2011/021130); cited from earlier work
Na/K-ATPase α1 = target: T1, Na/K-ATPase α1 (Sus scrofa, UniProt P05024); assay: tyrosine 260 phosphorylation of Na/K-ATPase, Western blot; assay type: cell-based; conditions: LLC-PK1 cells, 100 nM ouabain, FIG. 4C
T1 construct: in normal LLC-PK1 cells, tyrosine 260 of full length Na/K-ATPase was phosphorylated; endogenous in cells; host or cells: LLC-PK1
Protocol: FIGS. 4A-4C include a schematic diagram and images relating to the phosphorylation of Y260 in CD2, FIG. 4A is a schematic diagram showing CD2 sequence from Na/K-ATPase α1 subunit with the tentative Src SH2 domain binding region surrounding Y260 marked in a box (SEQ ID NO: 10). FIG. 4B is an image showing the results of an experiment where five hundred μg of total cell lysate was immunoprecipitated with 10 μg anti-Src antibody and immunoprecipitates were subjected to Western blot analysis of tyrosine 260 phosphorylation using an anti-phosphotyrosine 260 Na/K-ATPase α1 antibody, and where the same membrane was stripped and probed for YFP. FIG. 4C includes images showing the results of an experiment where LLC-PK1 cells were grown up to 100% confluence and then serum starved overnight and treated with 100 nM ouabain for the indicated times and then western blotted by probing for pY260 α1 Na/K-ATPase and a 1 Na/K-ATPase, […] Src and total Src.
In view of the foregoing findings, experiments were then undertaken to develop a highly specific peptide antagonist for disrupting the CD2/SH2 interaction in order to inhibit the cardiotonic steroid-mediated signaling, in cells. […] As depicted in FIG. 4B, CD2 was capable of being phosphorylated when it was expressed in cells.

In the case of “CD2C2: peptide derived from CD2, non-phosphorylated; SEQ ID NO: 1 in PCT/US2011/021130 (STNCVEGTARGIVVYTGD; not fully specified (residue 15); listed as Homo sapiens)”, the ouabain antagonism [1] is listed as “effective ouabain antagonist”.

In the case of `C[C@@H]1O[C@@H](O[C@H]2C[C@@H](O)[C@]3(CO)[C@H]4[C@H](O)C[C@]5(C)[C@@H](C6=CC(=O)OC6)CC[C@]5(O)[C@@H]4CC[C@]3(O)C2)[C@H](O)[C@H](O)[C@H]1O` [ouabain], the “phosphorylation of tyrosine 260 of full length Na/K-ATPase” value (Na/K-ATPase α1) is reported as “increased the phosphorylation in a time-dependent manner”.
